Laboratory results from US10208046B2, “Nitrogen-containing heterocyclic compound” (Takeda Pharmaceutical Company Limited, priority 2014, dated 2019).

Biological target: T1, human M1 receptor (hCHRM1) (Homo sapiens, UniProt P11229)
T1 construct: expressed in transfected cells
T1 sequence (P11229 1-460): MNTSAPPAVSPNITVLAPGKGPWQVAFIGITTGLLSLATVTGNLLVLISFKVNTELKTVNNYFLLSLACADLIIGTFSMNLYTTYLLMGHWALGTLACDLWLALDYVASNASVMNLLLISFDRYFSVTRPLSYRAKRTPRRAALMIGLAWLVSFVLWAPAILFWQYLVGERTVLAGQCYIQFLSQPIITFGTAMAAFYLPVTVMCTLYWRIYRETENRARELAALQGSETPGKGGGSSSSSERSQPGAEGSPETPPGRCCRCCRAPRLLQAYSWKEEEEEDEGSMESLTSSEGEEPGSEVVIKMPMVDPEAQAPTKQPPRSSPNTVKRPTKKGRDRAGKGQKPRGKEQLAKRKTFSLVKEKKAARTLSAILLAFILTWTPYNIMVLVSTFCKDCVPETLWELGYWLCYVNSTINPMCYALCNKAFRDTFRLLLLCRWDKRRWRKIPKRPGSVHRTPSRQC
Experiment: Measurement of M1 receptor positive allosteric modulator (M1PAM) activity, calcium fluorescence in CHO-K1 cells;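 on EC50: potency reported as IP value in nM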
Assay type: cell-based
Conditions: for activity (%) at 10 μM: 10 μM test compound with acetylcholine at EC20, 100% = acetylcholine 1 μM, 0% = DMSO; for EC50: inflection point in the concentration-dependent curve, acetylcholine at EC20 (final 0.6-0.8 nM), CHO-K1 cells expressing human M1, Fluo-4, FLIPRtetra, read-out: IP value
Description: Measurement of M1 Receptor Positive Allosteric Modulator (M1PAM) Activity
The activity of a test compound in the presence of acetylcholine at EC20 concentration (final concentration 0.6-0.8 nM), which affords an action corresponding to about 20% of the maximum activity, was measured as PAM activity. The method is as follows. CHO-K1 cells stably expressing a human M1 receptor (hCHRM1) were plated on a 384-well black clear bottom plate (BD Falcon) at 5,000 cells/well, and cultured in an incubator at 37° C., 5% CO2 for 1 day. The medium in the cell plate was removed, and assay buffer A containing calcium indicator (Recording medium (DOJINDO LABORATORIES), 0.1% BSA (Wako Pure Chemical Industries, Ltd.), 2.5 μg/mL Fluo-4 AM (DOJINDO LABORATORIES), 0.08% Pluronic F127 (DOJINDO LABORATORIES), 1.25 mM probenecid (DOJINDO LABORATORIES)) was added at 30 μL/well. The cells were left standing in the incubator at 37° C., 5% CO2 for 30 min, and further left standing at room temperature for 30 min. A test compound prepared by diluting with assay buffer B (HBSS (Invitrogen), 20 mM HEPES (Invitrogen), 0.1% BSA) containing 2.4-3.2 nM acetylcholine was added at 10 μL/well, and the fluorescence was measured by FLIPRtetra (Molecular Devices) for 1 min every 1 second. With the definition that the amount of change in the fluorescence on addition of acetylcholine (final concentration 1 μM) is 100% and that on addition of DMSO instead of a test compound is 0%, the activity (%) of the test compound was calculated, and the inflection point in the concentration-dependent curve of the test compound was calculated as IP values.

SMILES	activity (%) at 10 μM [%]	EC50 [nM]
Cc1nn(C)cc1-c1ccc(CN2Cc3ncnc(OCC(C)(C)F)c3C2=O)c(F)c1 [Example 46, 6-(4-(1,3-dimethyl-1H-pyrazol-4-yl)-2-fluorobenzyl)-4-(2-fluoro-2-methylpropoxy)-6,7-dihydro-5H-pyrrolo[3,4-d]pyrimidin-5-one]	90	5.2
CCC(F)(F)COc1nccc2c1C(=O)N(Cc1ccc(-c3cnn(CC(F)F)c3)cc1F)C2 [Example 59, 4-(2,2-difluorobutoxy)-2-(4-(1-(2,2-difluoroethyl)-1H-pyrazol-4-yl)-2-fluorobenzyl)-1,2-dihydro-3H-pyrrolo[3,4-c]pyridin-3-one]	107	17
CCn1cc(-c2ccc(CN3Cc4ccnc(OCC(F)(F)CC)c4C3=O)c(F)c2)cn1 [Example 60, 4-(2,2-difluorobutoxy)-2-(4-(1-ethyl-1H-pyrazol-4-yl)-2-fluorobenzyl)-1,2-dihydro-3H-pyrrolo[3,4-c]pyridin-3-one]	94	7.4
CCC(F)(F)COc1nccc2c1C(=O)N(Cc1ccc(-c3cnn(CC(F)(F)F)c3)cc1F)C2 [Example 62, 4-(2,2-difluorobutoxy)-2-(2-fluoro-4-(1-(2,2,2-trifluoroethyl)-1H-pyrazol-4-yl)benzyl)-1,2-dihydro-3H-pyrrolo[3,4-c]pyridin-3-one]	91	40
CCC(F)(F)COc1nccc2c1C(=O)N(Cc1ccc(-c3cnn(C(F)F)c3)cc1)C2 [Example 63, 4-(2,2-difluorobutoxy)-2-(4-(1-(difluoromethyl)-1H-pyrazol-4-yl)benzyl)-1,2-dihydro-3H-pyrrolo[3,4-c]pyridin-3-one]	91	96
CCn1cc(-c2ccc(CN3Cc4ccnc(OCC(F)F)c4C3=O)cc2)cn1 [Example 66, 4-(2,2-difluoroethoxy)-2-(4-(1-ethyl-1H-pyrazol-4-yl)benzyl)-1,2-dihydro-3H-pyrrolo[3,4-c]pyridin-3-one]	105	66
CCn1cc(-c2ccc(CN3Cc4ncnc(OCC(F)(F)CC)c4C3=O)cc2)cn1 [Example 68, 4-(2,2-difluorobutoxy)-6-(4-(1-ethyl-1H-pyrazol-4-yl)benzyl)-6,7-dihydro-5H-pyrrolo[3,4-d]pyrimidin-5-one]	97	7.1
CCC(F)(F)COc1ncnc2c1C(=O)N(Cc1ccc(-c3cnn(CC(F)(F)F)c3)cc1)C2 [Example 69, 4-(2,2-difluorobutoxy)-(4-(1-(2,2,2-trifluoroethyl)-1H-pyrazol-4-yl)benzyl)-6,7-dihydro-5H-pyrrolo[3,4-d]pyrimidin-5-one]	88	9.6
CCC(F)(F)COc1nccc2c1C(=O)N(Cc1ccc(-c3cn[nH]c3)cc1)C2 [Example 72, 4-(2,2-difluorobutoxy)-2-(4-(1H-pyrazol-4-yl)benzyl)-1,2-dihydro-3H-pyrrolo[3,4-c]pyridin-3-one]	90	59
CCC(F)(F)COc1nccc2c1C(=O)N(Cc1ccc(-c3cnn(CC(F)(F)F)c3)cc1)C2 [Example 73, 4-(2,2-difluorobutoxy)-2-(4-(1-(2,2,2-trifluoroethyl)-1H-pyrazol-4-yl)benzyl)-1,2-dihydro-3H-pyrrolo[3,4-c]pyridin-3-one]	94	50
CCC(F)(F)COc1ncnc2c1C(=O)N(Cc1ccc(-c3cn(C)nc3C)cc1F)C2 [Example 74, 4-(2,2-difluorobutoxy)-6-(4-(1,3-dimethyl-1H-pyrazol-4-yl)-2-fluorobenzyl)-6,7-dihydro-5H-pyrrolo[3,4-d]pyrimidin-5-one]	101	8.7

Next, values leading:

activity (%) at 10 μM [%]	EC50 [nM]	SMILES
98	46	CCn1cc(-c2ccc(CN3Cc4ncnc(OCC(F)(F)F)c4C3=O)cc2)cn1 [Example 37, 6-(4-(1-ethyl-1H-pyrazol-4-yl)benzyl)-4-(2,2,2-trifluoroethoxy)-6,7-dihydro-5H-pyrrolo[3,4-d]pyrimidin-5-one]
93	40	Cc1nn(C)cc1-c1ccc(CN2Cc3ncnc(OCC(F)(F)F)c3C2=O)cc1 [Example 39, 6-(4-(1,3-dimethyl-1H-pyrazol-4-yl)benzyl)-4-(2,2,2-trifluoroethoxy)-6,7-dihydro-5H-pyrrolo[3,4-d]pyrimidin-5-one]
96	9	Cc1nn(C)cc1-c1ccc(CN2Cc3ncnc(OCC(F)F)c3C2=O)c(F)c1 [Example 40, 4-(2,2-difluoroethoxy)-6-(4-(1,3-dimethyl-1H-pyrazol-4-yl)-2-fluorobenzyl)-6,7-dihydro-5H-pyrrolo[3,4-d]pyrimidin-5-one]
106	23	Cc1nn(C)cc1-c1ccc(CN2Cc3ncnc(OCC(F)F)c3C2=O)cc1 [Example 42, 4-(2,2-difluoroethoxy)-6-(4-(1,3-dimethyl-1H-pyrazol-4-yl)benzyl)-6,7-dihydro-5H-pyrrolo[3,4-d]pyrimidin-5-one]
86	6.7	CCn1cc(-c2ccc(CN3Cc4ncnc(OCC(C)(C)F)c4C3=O)c(F)c2)cn1 [Example 44, 6-(4-(1-ethyl-1H-pyrazol-4-yl)-2-fluorobenzyl)-4-(2-fluoro-2-methylpropoxy)-6,7-dihydro-5H-pyrrolo[3,4-d]pyrimidin-5-one]
87	10	CCn1cc(-c2ccc(CN3Cc4ncnc(OCC(C)(C)F)c4C3=O)cc2)cn1 [Example 45, 6-(4-(1-ethyl-1H-pyrazol-4-yl)benzyl)-4-(2-fluoro-2-methylpropoxy)-6,7-dihydro-5H-pyrrolo[3,4-d]pyrimidin-5-one]
102	21	O=C1c2c(ccnc2OCC(F)F)CN1Cc1ccc(-c2cnn(CC(F)F)c2)cc1F [Example 56, 4-(2,2-difluoroethoxy)-2-(4-(1-(2,2-difluoroethyl)-1H-pyrazol-4-yl)-2-fluorobenzyl)-1,2-dihydro-3H-pyrrolo[3,4-c]pyridin-3-one]
101	18	O=C1c2c(ccnc2OCC(F)F)CN1Cc1ccc(-c2cnn(CC(F)(F)F)c2)cc1F [Example 57]
104	35	CCn1cc(-c2ccc(CN3Cc4ccnc(OCC(F)F)c4C3=O)c(F)c2)cn1 [Example 58, 4-(2,2-difluoroethoxy)-2-(4-(1-ethyl-1H-pyrazol-4-yl)-2-fluorobenzyl)-1,2-dihydro-3H-pyrrolo[3,4-c]pyridin-3-one]
91	51	O=C1c2c(ccnc2OCC(F)F)CN1Cc1ccc(-c2cnn(CC(F)F)c2)cc1 [Example 61, 4-(2,2-difluoroethoxy)-2-(4-(1-(2,2-difluoroethyl)-1H-pyrazol-4-yl)benzyl)-1,2-dihydro-3H-pyrrolo[3,4-c]pyridin-3-one]
106	91	O=C1c2c(ccnc2OCC(F)F)CN1Cc1ccc(-c2cnn(CC(F)(F)F)c2)cc1 [Example 65, 4-(2,2-difluoroethoxy)-2-(4-(1-(2,2,2-trifluoroethyl)-1H-pyrazol-4-yl)benzyl)-1,2-dihydro-3H-pyrrolo[3,4-c]pyridin-3-one]
